Like-named read-outs stand apart in the source and are kept apart here.
Biological target: Mcl-1 protein (UniProtKB primary accession number: Q07820) (Homo sapiens, UniProt Q07820)
Experiment: Inhibition of Mcl-1 by fluorescence polarisation, Method 1
Assay type: binding
Details: for IC50: read-out: IC50 (M) Mcl-1 FP; for percentage fluorescence polarisation inhibition (Mcl-1 FP), partial inhibitors: test compound at 10 uM, Method 1, or Method 2 where the value is underlined (underlining not visible)
Method in brief: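 Binding was measured as fluorescence polarisation of a fluorescein-labelled ligand (1 nM) displaced from Mcl-1 (5 nM), both final. Compounds ran as 11-point series with final DMSO at 5%.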

[1] = fluorescence polarisation test, Method 2 values are underlined in the patent (underlining not visible here)
[2] = fluorescence polarisation, Method 1, or Method 2

Sequence of Mcl-1 protein (Q07820 whole entry): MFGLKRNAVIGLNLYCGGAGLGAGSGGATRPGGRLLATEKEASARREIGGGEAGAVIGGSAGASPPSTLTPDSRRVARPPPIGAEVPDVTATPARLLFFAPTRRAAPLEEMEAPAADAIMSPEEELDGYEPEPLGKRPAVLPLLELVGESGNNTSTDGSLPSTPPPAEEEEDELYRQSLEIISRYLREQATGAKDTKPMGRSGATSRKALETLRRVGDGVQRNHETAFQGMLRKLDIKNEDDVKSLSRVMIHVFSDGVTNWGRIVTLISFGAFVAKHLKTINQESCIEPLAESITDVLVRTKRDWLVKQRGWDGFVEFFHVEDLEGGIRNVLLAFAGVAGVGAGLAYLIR

Row | IC50 [1] [M] | IC50 [2] [M] | SMILES | other results
1 | 1.2e-08 | – | Cc1c(-c2c(-c3ccc(F)cc3)sc3ncnc(OC(Cc4ccccc4OCc4cncn4C)C(=O)O)c23)ccc(OCCN2CCN(C)CC2)c1Cl [Example 92, (2R)-2-{[(5Sa)-5-{3-chloro-2-methyl-4-[2-(4-methylpiperazin-1-yl)ethoxy]phenyl}-6-(4-fluorophenyl)thieno[2,3-d]pyrimidin-4-yl]oxy}-3-{2-[(1-methyl-1H-imidazol-5-yl)methoxy]phenyl}propanoic acid] | –
2 | – | 1.6e-08 | COc1ccccc1CC(Oc1ncnc2sc(-c3cccc(OCCN4CCN(C)CC4)c3)c(-c3ccc(OC)c(Cl)c3C)c12)C(=O)O [Example 713, (2R)-2-{[(5Sa)-5-(3-chloro-4-methoxy-2-methylphenyl)-6-{3-[2-(4-methylpiperazin-1-yl)ethoxy]phenyl}thieno[2,3-d]pyrimidin-4-yl]oxy}-3-(2-methoxyphenyl)propanoic acid] | –
3 | – | 1e-07 | COc1ccc(-c2c(-c3ccc(F)cc3)sc3ncnc(OC(Cc4ccccc4OCCN4CCN(C)CC4)C(=O)O)c23)c(C)c1Cl [Example 661, (2R)-2-{[(5Sa)-5-(3-chloro-4-methoxy-2-methylphenyl)-6-(4-fluorophenyl)thieno[2,3-d]pyrimidin-4-yl]oxy}-3-{2-[2-(4-methylpiperazin-1-yl)ethoxy]phenyl}propanoic acid] | –
4 | – | 1.9e-08 | CC#Cc1sc2ncnc(OC(Cc3ccccc3OC)C(=O)O)c2c1-c1ccc(OCCN2CCN(C)CC2)c(Cl)c1C [Example 572, (2R)-2-{[(5Sa)-5-{3-chloro-2-methyl-4-[2-(4-methylpiperazin-1-yl)ethoxy]phenyl}-6-(prop-1-yn-1-yl)thieno[2,3-d]pyrimidin-4-yl]oxy}-3-(2-methoxyphenyl)propanoic acid] | –
5 | 4.8e-09 | – | COCCc1nccc(COc2ccccc2CC(Oc2ncnc3sc(-c4ccc(F)cc4)c(-c4ccc(OCCN5CCN(C)CC5)c(Cl)c4C)c23)C(=O)O)n1 [Example 44, (2R)-2-{[(5Sa)-5-{3-chloro-2-methyl-4-[2-(4-methylpiperazin-1-yl)ethoxy]phenyl}-6-(4-fluorophenyl)thieno[2,3-d]pyrimidin-4-yl]oxy}-3-(2-{[2-(2-methoxyethyl)pyrimidin-4-yl]methoxy}phenyl)propanoic acid] | –
6 | 1.8e-08 | – | Cc1c(-c2c(-c3ccco3)sc3ncnc(OC(Cc4ccccc4OC4CCCc5cccnc54)C(=O)O)c23)ccc(OCCN2CCN(C)CC2)c1Cl [Example 213, (2R)-2-{[(5Sa)-5-{3-chloro-2-methyl-4-[2-(4-methylpiperazin-1-yl)ethoxy]phenyl}-6-(furan-2-yl)thieno[2,3-d]pyrimidin-4-yl]oxy}-3-[2-(5,6,7,8-tetrahydroquinolin-8-yloxy)phenyl]propanoic acid] | –
7 | – | 3e-08 | COc1ccccc1CC(Oc1ncnc2sc(-c3ccccc3F)c(-c3ccc(OCCN4CCN(C)CC4)c(Cl)c3C)c12)C(=O)O [Example 566, (2R)-2-{[(5Sa)-5-{3-chloro-2-methyl-4-[2-(4-methylpiperazin-1-yl)ethoxy]phenyl}-6-(2-fluorophenyl)thieno[2,3-d]pyrimidin-4-yl]oxy}-3-(2-methoxyphenyl)propanoic acid] | –
8 | – | 3.4e-08 | CCc1sc2ncnc(OC(Cc3ccccc3OCCOC)C(=O)O)c2c1-c1ccc(OCCN2CCN(C)CC2)c(Cl)c1C [Example 457, (2R)-2-[((5Sa)-5-{3-chloro-2-methyl-4-[2-(4-methylpiperazin-1-yl)ethoxy]phenyl}-6-ethylthieno[2,3-d]pyrimidin-4-yl)oxy]-3-[2-(2-methoxyethoxy)phenyl]propanoic acid] | –
9 | 1.5e-08 | – | COc1ccccc1CC(Oc1ncnc2sc(-c3ccco3)c(-c3ccc(OCCN4CCN(CC(F)(F)F)CC4)c(Cl)c3C)c12)C(=O)O [Example 327, (2R)-2-{[(5Sa)-5-(3-chloro-2-methyl-4-{2-[4-(2,2,2-trifluoroethyl)piperazin-1-yl]ethoxy}phenyl)-6-(furan-2-yl)thieno[2,3-d]pyrimidin-4-yl]oxy}-3-(2-methoxyphenyl)propanoic acid] | –
10 | 5.7e-09 | – | COc1nccc(COc2ccccc2CC(Oc2ncnc3sc(-c4ccc(F)cc4)c(-c4ccc(OCCN5CCN(C)CC5)c(Cl)c4C)c23)C(=O)O)n1 [Example 54, (2R)-2-{[(5Sa)-5-{3-chloro-2-methyl-4-[2-(4-methylpiperazin-1-yl)ethoxy]phenyl}-6-(4-fluorophenyl)thieno[2,3-d]pyrimidin-4-yl]oxy}-3-{2-[(2-methoxypyrimidin-4-yl)methoxy]phenyl}propanoic acid] | –
11 | 3e-08 | – | Cc1c(-c2c(-c3ccco3)sc3ncnc(OC(Cc4ccccc4CN)C(=O)O)c23)ccc(OCCN2CCN(C)CC2)c1Cl [Example 355, (2R)-3-[2-(aminomethyl)phenyl]-2-{[(5Sa)-5-{3-chloro-2-methyl-4-[2-(4-methylpiperazin-1-yl)ethoxy]phenyl}-6-(furan-2-yl)thieno[2,3-d]pyrimidin-4-yl]oxy}propanoic acid] | –

Further lines, the compound ahead of its results:

Row | SMILES | IC50 [1] [M] | IC50 [2] [M] | other results
12 | Cc1c(-c2c(-c3ccc(F)o3)sc3ncnc(OC(Cc4ccccc4OCC4CCCO4)C(=O)O)c23)ccc(OCCN2CCN(C)CC2)c1Cl [Example 150, (2R)-2-{[(5Sa)-5-{3-chloro-2-methyl-4-[2-(4-methylpiperazin-1-yl)ethoxy]phenyl}-6-(5-fluorofuran-2-yl)thieno[2,3-d]pyrimidin-4-yl]oxy}-3-{2-[(2R)-tetrahydrofuran-2-ylmethoxy]phenyl}propanoic acid] | 9.3e-09 | – | –
13 | C=C(C)c1sc2ncnc(O[C@H](Cc3ccccc3)C(=O)O)c2c1-c1cccc(Cl)c1C (single isomer, unassigned) [Example 720] | – | 4.4e-08 | –
14 | COc1ccccc1-c1nccc(COc2ccccc2C[C@@H](Oc2ncnc3sc(-c4ccc(F)cc4)c(-c4ccc(OC)c(Cl)c4C)c23)C(=O)OCOC(=O)C(C)(C)C)n1 [Example 849, {[(2R)-2-{[(5Sa)-5-(3-chloro-4-methoxy-2-methylphenyl)-6-(4-fluorophenyl)thieno[2,3-d]pyrimidin-4-yl]oxy}-3-(2-{[2-(2-methoxyphenyl)pyrimidin-4-yl]methoxy}phenyl)propanoyl]oxy}methyl 2,2-dimethylpropanoate] | – | – | percentage fluorescence polarisation inhibition (Mcl-1 FP), partial inhibitors: 61.35% @ 10 uM
15 | Cc1c(-c2c(-c3ccco3)sc3ncnc(OC(C(=O)O)c4ccccc4)c23)ccc(OCCN2CCN(C)CC2)c1Cl [Example 340, (2R)-{[(5Sa)-5-{3-chloro-2-methyl-4-[2-(4-methylpiperazin-1-yl)ethoxy]phenyl}-6-(furan-2-yl)thieno[2,3-d]pyrimidin-4-yl]oxy}(phenyl)ethanoic acid] | 6.7e-07 | – | –
16 | COc1ccccc1-c1nccc(COc2ccccc2CC(Oc2ncnc3sc(-c4ccc(OCCc5ccccc5)cc4)c(-c4ccc(OCCN5CCN(C)CC5)c(Cl)c4C)c23)C(=O)O)n1 (single isomer, unassigned) [Example 765] | – | 6.58e-07 | –
17 | CCCCCCCCOC(=O)[C@@H](Cc1ccccc1OC)Oc1ncnc2sc(-c3ccc(F)cc3)c(-c3ccc(OCCN4CCN(C)CC4)c(Cl)c3C)c12 [Example 850, octyl (2R)-2-{[(5Sa)-5-{3-chloro-2-methyl-4-[2-(4-methylpiperazin-1-yl)ethoxy]phenyl}-6-(4-fluorophenyl)thieno[2,3-d]pyrimidin-4-yl]oxy}-3-(2-methoxyphenyl)propanoate] | – | – | percentage fluorescence polarisation inhibition (Mcl-1 FP), partial inhibitors: 29.4% @ 10 uM
18 | CCc1sc2ncnc(OC(Cc3ccccc3)C(=O)O)c2c1-c1cc(N)c(O)c(Cl)c1C [Example 431, (2R)-2-{[(5Sa)-5-(5-amino-3-chloro-4-hydroxy-2-methylphenyl)-6-ethylthieno[2,3-d]pyrimidin-4-yl]oxy}-3-phenylpropanoic acid] | – | 3.2e-08 | –
19 | CCCCCCCCOC(=O)[C@@H](Cc1ccccc1OCc1ccnc(-c2ccccc2OC)n1)Oc1ncnc2sc(-c3ccc(F)cc3)c(-c3ccc(OCCN4CCN(C)CC4)c(Cl)c3C)c12 [Example 815, octyl (2R)-2-{[(5Sa)-5-{3-chloro-2-methyl-4-[2-(4-methylpiperazin-1-yl)ethoxy]phenyl}-6-(4-fluorophenyl)thieno[2,3-d]pyrimidin-4-yl]oxy}-3-(2-{[2-(2-methoxyphenyl)pyrimidin-4-yl]methoxy}phenyl)propanoate] | – | – | percentage fluorescence polarisation inhibition (Mcl-1 FP), partial inhibitors: 19.95% @ 10 uM
20 | CC#Cc1sc2ncnc(OC(Cc3ccccc3OC)C(=O)O)c2c1-c1ccc(O)c(Cl)c1C [Example 480, (2R)-2-{[(5Sa)-5-(3-chloro-4-hydroxy-2-methylphenyl)-6-(prop-1-yn-1-yl)thieno[2,3-d]pyrimidin-4-yl]oxy}-3-(2-methoxyphenyl)propanoic acid] | – | 2.8e-08 | –
21 | CC/C=C\c1sc2ncnc(O[C@H](Cc3ccccc3)C(=O)O)c2c1-c1ccc(OCCN2CCN(C)CC2)c(Cl)c1C [Example 493, (2R)-2-[(6-[(1Z)-but-1-en-1-yl]-(5Sa)-5-{3-chloro-2-methyl-4-[2-(4-methylpiperazin-1-yl)ethoxy]phenyl}thieno[2,3-d]pyrimidin-4-yl)oxy]-3-phenylpropanoic acid] | – | 5e-09 | –
22 | CCOC(=O)[C@@H](Cc1ccccc1OCC(F)(F)F)Oc1ncnc2sc(-c3ccc(F)cc3)c(-c3ccc(OCCN(C)C)c(Cl)c3C)c12 [Example 634, ethyl (2R)-2-{[(5Sa)-5-{3-chloro-4-[2-(dimethylamino)ethoxy]-2-methylphenyl}-6-(4-fluorophenyl)thieno[2,3-d]pyrimidin-4-yl]oxy}-3-[2-(2,2,2-trifluoroethoxy)phenyl]propanoate] | – | – | percentage fluorescence polarisation inhibition, Mcl-1 FP (partial inhibitors, @ 10 uM test compound): 10.7% @ 10 uM
23 | CCc1sc2ncnc(OC(Cc3ccccc3)C(=O)O)c2c1-c1cc([N+](=O)[O-])c(O)c(Cl)c1C [Example 426, (2R)-2-{[(5Sa)-5-(3-chloro-4-hydroxy-2-methyl-5-nitrophenyl)-6-ethylthieno[2,3-d]pyrimidin-4-yl]oxy}-3-phenylpropanoic acid] | – | 4.6e-09 | –
